The structures appear in SMILES notation.

Growth data for four compounds are collected here from ChEMBL document CHEMBL3994622, “Design and synthesis of new RAF kinase-inhibiting antiproliferative quinoline derivatives. Part 2: Diarylurea derivatives” (Eur J Med Chem, 2017).

Holding throughout (format): functional
For test [1], the system named is NCI-H522. Nature of the test: Growth inhibition of human NCI-H522 cells assessed as cell growth at 100 uM incubated for 48 hrs by sulforhodamine B assay relative to control. The note with it: NCI-H522, 48 h, read-out: Activity.
For test [2], the system named is SF-295. Nature of the test: Growth inhibition of human SF295 cells assessed as cell growth at 1 uM incubated for 48 hrs by sulforhodamine B assay relative to control. The note with it: SF-295, 48 h, read-out: Activity.
The subject of test [3] is OVCAR-3. Put plainly: Growth inhibition of human OVCAR3 cells assessed as cell growth at 0.01 uM incubated for 48 hrs by sulforhodamine B assay relative to control. The note with it: OVCAR-3, 48 h, read-out: Activity.
Test [4] concerns SR. Nature of the test: Growth inhibition of human SR cells assessed as cell growth at 100 uM incubated for 48 hrs by sulforhodamine B assay relative to control. The note with it: read-out: Activity.
The subject of test [5] is A498. Nature of the test: Growth inhibition of human A498 cells assessed as cell growth at 1 uM incubated for 48 hrs by sulforhodamine B assay relative to control. The note with it: A498, 48 h, read-out: Activity.
In test [6] the test system is SNB-19. Nature of the test: Growth inhibition of human SNB19 cells assessed as cell growth at 0.01 uM incubated for 48 hrs by sulforhodamine B assay relative to control. The note with it: SNB-19, 48 h, read-out: Activity.
The subject of test [7] is 786-0. Nature of the test: Growth inhibition of human 786-0 cells assessed as cell growth at 1 uM incubated for 48 hrs by sulforhodamine B assay relative to control. The note with it: 786-0, 48 h, read-out: Activity.
In test [8] the test system is COLO 205. Put plainly: Growth inhibition of human COLO205 cells assessed as cell growth at 100 uM incubated for 48 hrs by sulforhodamine B assay relative to control. The note with it: COLO 205, 48 h, read-out: Activity.
In test [9] the test system is HCT-15. Put plainly: Growth inhibition of human HCT15 cells assessed as cell growth at 1 uM incubated for 48 hrs by sulforhodamine B assay relative to control. The note with it: HCT-15, 48 h, read-out: Activity.
Test [10] concerns OVCAR-8. Put plainly: Growth inhibition of human OVCAR8 cells assessed as cell growth at 100 uM incubated for 48 hrs by sulforhodamine B assay relative to control. The note with it: OVCAR-8, 48 h, read-out: Activity.
For test [11], the system named is RXF 393. Nature of the test: Growth inhibition of human RXF393 cells assessed as cell growth at 100 uM incubated for 48 hrs by sulforhodamine B assay relative to control. The note with it: RXF 393, 48 h, read-out: Activity.
The test system of test [12] is NCI-H460. Put plainly: Growth inhibition of human NCI-H460 cells assessed as cell growth at 0.01 uM incubated for 48 hrs by sulforhodamine B assay relative to control. The note with it: NCI-H460, 48 h, read-out: Activity.
For test [13], the system named is SN12C. Put plainly: Growth inhibition of human SN12C cells assessed as cell growth at 1 uM incubated for 48 hrs by sulforhodamine B assay relative to control. The note with it: read-out: Activity.
Test [14] relates to NCI-H23. Nature of the test: Growth inhibition of human NCI-H23 cells assessed as cell growth at 100 uM incubated for 48 hrs by sulforhodamine B assay relative to control. The note with it: NCI-H23, 48 h, read-out: Activity.
Test [15] deals with SK-MEL-2. Nature of the test: Growth inhibition of human SK-MEL-2 cells assessed as cell growth at 100 uM incubated for 48 hrs by sulforhodamine B assay relative to control. The note with it: SK-MEL-2, 48 h, read-out: Activity.
For test [16], the system named is 786-0. Put plainly: Growth inhibition of human 786-0 cells assessed as cell growth at 0.3 uM incubated for 48 hrs by sulforhodamine B assay relative to control. The note with it: 786-0, 48 h, read-out: Activity.
Test [17] has as its system SF-539. Nature of the test: Growth inhibition of human SF539 cells assessed as cell growth at 30 uM incubated for 48 hrs by sulforhodamine B assay relative to control. The note with it: SF-539, 48 h, read-out: Activity.
For test [18], the system named is HT-29. Nature of the test: Growth inhibition of human HT-29 cells assessed as cell growth at 0.03 uM incubated for 48 hrs by sulforhodamine B assay relative to control. The note with it: HT-29, 48 h, read-out: Activity.
For test [19], the system named is NCI-H522. Put plainly: Growth inhibition of human NCI-H522 cells assessed as cell growth at 0.003 uM incubated for 48 hrs by sulforhodamine B assay relative to control. The note with it: NCI-H522, 48 h, read-out: Activity.
Test [20] has as its system MDA-MB-435. Nature of the test: Growth inhibition of human MDA-MB-435 cells assessed as cell growth at 0.03 uM incubated for 48 hrs by sulforhodamine B assay relative to control. The note with it: MDA-MB-435, 48 h, read-out: Activity.
Test [21] has as its system KM12. Put plainly: Growth inhibition of human KM12 cells assessed as cell growth at 0.03 uM incubated for 48 hrs by sulforhodamine B assay relative to control. The note with it: KM12, 48 h, read-out: Activity.
In test [22] the test system is HOP-62. Nature of the test: Growth inhibition of human HOP62 cells assessed as cell growth at 0.03 uM incubated for 48 hrs by sulforhodamine B assay relative to control. The note with it: HOP-62, 48 h, read-out: Activity.
Test [23] deals with MOLT-4. Put plainly: Growth inhibition of human MOLT4 cells assessed as cell growth at 3 uM incubated for 48 hrs by sulforhodamine B assay relative to control. The note with it: MOLT-4, 48 h, read-out: Activity.
Test [24] relates to SF-295. Put plainly: Growth inhibition of human SF295 cells assessed as cell growth at 0.03 uM incubated for 48 hrs by sulforhodamine B assay relative to control. The note with it: SF-295, 48 h, read-out: Activity.
The test system of test [25] is OVCAR-3. Put plainly: Growth inhibition of human OVCAR3 cells assessed as cell growth at 0.003 uM incubated for 48 hrs by sulforhodamine B assay relative to control. The note with it: OVCAR-3, 48 h, read-out: Activity.
Test [26] deals with U-251. Put plainly: Growth inhibition of human U251 cells assessed as cell growth at 3 uM incubated for 48 hrs by sulforhodamine B assay relative to control. The note with it: U-251, 48 h, read-out: Activity.
Test [27] deals with SNB-75. Put plainly: Growth inhibition of human SNB75 cells assessed as cell growth at 30 uM incubated for 48 hrs by sulforhodamine B assay relative to control. The note with it: SNB-75, 48 h, read-out: Activity.
Test [28] deals with K562. Put plainly: Growth inhibition of human K562 cells assessed as cell growth at 0.03 uM incubated for 48 hrs by sulforhodamine B assay relative to control. The note with it: K562, 48 h, read-out: Activity.
The subject of test [29] is IGROV-1. Put plainly: Growth inhibition of human IGROV1 cells assessed as cell growth at 0.003 uM incubated for 48 hrs by sulforhodamine B assay relative to control. The note with it: IGROV-1, 48 h, read-out: Activity.
Test [30] has as its system T47D. Nature of the test: Growth inhibition of human T47D cells assessed as cell growth at 0.03 uM incubated for 48 hrs by sulforhodamine B assay relative to control. The note with it: read-out: Activity.
Test [31] deals with MDA-MB-231. Put plainly: Growth inhibition of human MDA-MB-231 cells assessed as cell growth at 30 uM incubated for 48 hrs by sulforhodamine B assay relative to control. The note with it: MDA-MB-231, 48 h, read-out: Activity.
For test [32], the system named is Malme-3M. Nature of the test: Growth inhibition of human MALME-3M cells assessed as cell growth at 0.3 uM incubated for 48 hrs by sulforhodamine B assay relative to control. The note with it: read-out: Activity.
Test [33] deals with HCC 2998. Nature of the test: Growth inhibition of human HCC2998 cells assessed as cell growth at 0.03 uM incubated for 48 hrs by sulforhodamine B assay relative to control. The note with it: HCC 2998, 48 h, read-out: Activity.

`COc1cc2cc(Oc3ccc(NC(=O)Nc4cc(C(F)(F)F)cc(C(F)(F)F)c4)cc3)c(C)nc2cc1OC`: the growth at 100 µM in test [1] is -79%; in test [4] it was -19%; in test [8] it was -79%; in test [10] it was -43%; in test [11], -78%; in test [14] it was -68%. In addition, the growth at 100 µM in test [15] is -69%. Besides, the growth at 1 µM in [2] was found to be 31%; in test [5], 74%; in test [7] it was 87%; in test [9], 41%; in test [13], 35%. For the same compound, the figures for the growth at 0.01 µM in test [3], in [6] and in test [12] were 104%, 95% and 105%, respectively.
As for `Cc1nc2cc(O)c(O)cc2cc1Oc1ccc(NC(=O)Nc2ccc(Cl)c(Cl)c2)cc1`, the figures for the growth at 0.3 µM in [16] and in [32] were 95% and 81%, respectively. Moreover, the growth at 30 µM in test [17] was -19%; in test [27], -4%; in test [31], 6%. The growth at 0.03 µM in test [18] stood at 103%; in [20], 91%; in [21], 103%; in test [22], 105%; in test [24] it was 90%; in [28], 110%. Also, the growth at 0.03 µM is 102% in [30] and 99% in test [33]. The growth at 0.003 µM turned out to be 95% in [19], 105% in test [25] and 104% in [29]. Moreover, the growth at 3 µM amounted to 87% in test [23] and 71% in test [26].
For `COc1cc2cc(Oc3ccc(NC(=O)Nc4ccc(Cl)c(Cl)c4)cc3)c(C)nc2cc1OC`, the growth at 100 µM is -63% in test [1]; -48% in test [4]; -100% in [8]; -100% in test [10]; -65% in test [11]; -59% in test [14]. Moreover, the growth at 100 µM in test [15] was -100%. The growth at 1 µM came to 80% in [2]; 74% in test [5]; 86% in test [7]; 88% in test [9]; 85% in test [13]. The growth at 0.01 µM in test [3] stood at 109%; in test [6], 94%; in test [12], 105%.
As to `COc1cc2cc(Oc3ccc(NC(=O)Nc4ccc(Cl)c(C(F)(F)F)c4)cc3)c(C)nc2cc1OC`, the growth at 0.3 µM in test [16] was found to be 93%; in test [32], 110%. Moreover, the growth at 30 µM in test [17] is -49%; in test [27], -44%; in [31], -74%. In addition, the growth at 0.03 µM in [18] came to 100%; in test [20], 95%; in test [21], 93%; in test [22], 106%; in [24], 91%; in test [28], 102%. The growth at 0.03 µM was 94% in test [30] and 106% in test [33]. In addition, the values for the growth at 0.003 µM in test [19], in test [25] and in [29] were 91%, 100% and 107%, respectively. Moreover, the growth at 3 µM was 10% in [23] and 6% in [26].
